Patent US20260263550A1, “METHODS AND COMPOSITIONS FOR TREATING, PREVENTING, INHIBITING, AMELIORATING OR DELAYING THE ONSET OF OPHTHALMIC CONDITIONS” (Stealth BioTherapeutics Inc., priority 2021, published 2026)

Tests used:
[1] = Uptake in plasma and compartments of the eye in a rabbit model (subcutaneous or topical ocular dosing); type: in vivo, Dutch Belted Rabbits; settings: in vivo
Method: 3 mg/mL elamipretide or compound of Formula IIa in saline was dosed subcutaneously at 1.5 mg/kg. A 3 mg/mL elamipretide or compound of Formula IIa formulation was prepared by dissolving 81 mg elamipretide in a total volume of 27 mL of sterile saline and mixing well. • (ii) Groups 2 & 4: Topical Ocular Formulation for administration of elamipretide or compound of Formula IIa
For each preparation (i.e., elamipretide or compound of Formula IIa, sodium chloride (105 mg) was dissolved in 16 mL of water for injection with mixing. With mixing, 82.8 mg of sodium phosphate monobasic, monohydrate was then added. With mixing, 0.400 mL of a 5 mg/mL benzalkonium chloride solution in water (to be prepared by diluting 0.100 mL of a 50% benzalkonium chloride solution in water to 10 mL with water for injection) was then added. Two hundred (200) mg of elamipretide or compound of Formula IIa was then added with mixing and the formulation pH was adjusted to 5.8 (+/−0.1) with 1 M sodium hydroxide in water solution. The final volume of the formulation was then be brought to 20 mL using water for injection. Each formulation (elamipretide or compound of Formula IIa) was used for topical ocular administration at a dose of 50 μL/eye OU.
A total of 48 male Dutch Belted Rabbits were used in the study. Each animal was approximately 2 kg.
For subcutaneous administration, rabbits were dosed via a single subcutaneous injection of 1.5 mg/kg and at the scruff of the neck between the shoulder blades using a syringe with an attached 27G×½ inch needle (or similar). The site of injection was checked to ensure no leakage of dose immediately following administration.
For topical administration, a calibrated Gilson positive displacement pipette was used to administer 50 μL of formulation onto the globe the eye while the lower eyelid was pulled away from the globe. Administration was twice daily (i.e., BID). Doses were administered to both eyes, every 8 to 12 hours for 11 total doses.
Terminal blood samples (approximately 6 mL) were collected from two animals/group/timepoint via the central ear artery at approximately 0.5, 1, 2, 4, 8, and 24 hours postdose. Blood samples were collected into tubes containing K2EDTA as the anticoagulant and inverted several times to ensure adequate mixing of blood and anticoagulant and placed on ice. Within 30 min of collection, samples were centrifuged to harvest plasma and stored at −80° C. until analyzed.
Following blood collection, designated animals were euthanized by barbiturate overdose. Following euthanasia, both eyes of each rabbit were harvested and dissected for collection of ocular tissue and fluid. Optic nerve and retina were collected from Group 1 and 3 animals, and aqueous humor, retina, conjunctiva, cornea, sclera, and optic nerve were collected from Group 2 and 4 animals. Following dissection, all fluids and tissues were placed in pre-tared tubes, weight collected, and then flash frozen on dry ice and placed in a freezer at −80° C. or lower until analyzed. Concentrations of test article in plasma in the ocular tissues (ng/g tissue) and fluids (ng/mL fluid) were determined utilizing a method previously developed by the CRO.

[2] = tested on: iPSC-derived RPE cells from AMD donors; assay: Measurement of mitochondrial function (Seahorse XF Cell Mito Stress Test); type: cell-based, human; settings: 10, 100, 1000 nM, treatment began 24 hours prior to assay, FIGS. 8AA-8AL
Method: Measurement of mitochondrial function. Analysis of mitochondrial function was performed on live iPSC-derived RPE cells from AMD donors (n=3; 2 atrophic with GA, 1 exudative) treated with drug (elamipretide, compound of Formula IIa, or vehicle) as described below and iPSC-derived RPE cells from non-diseased controls (n=2) using the XFe96 Extracellular Flux Analyzer (Agilent Technologies, Santa Clara, California, www.agilent.com) and the Seahorse XF Cell Mito Stress Test (CMST) Kit (Agilent Technologies). iPSC-derived RPE cells were seeded onto a laminin-coated Seahorse XF plates and grown until confluent. Data were normalized by cell count. Drug treatments began 24 hours prior to assay. […]
Cells were stained with DAPI and counted by ImageJ software (National Institute of Health, Bethesda, Maryland, www.nih.gov). […] Oxygen consumption rate was detected under basal conditions followed by the sequential addition of oligomycin, carbonyl cyanide 4-(trifluoromethoxy) phenylhydrazone (FCCP), rotenone, and antimycin A. From these sequential additions, the following parameters can be derived: basal respiration, ATP production, maximal respiration, and spare respiratory capacity.

[3] = 10-day SC study in-life assessments (mortality, body weight, tolerability); type: in vivo, cynomolgus monkey
Method: Administration of Compound of Formula IIa. The test agent (compound of formula IIa) was administered daily via subcutaneous injection into the scapular and mid-dorsal areas for 10 days. The first day of dosing was designated as Day 1. Dose formulations were allowed to warm up at ambient temperature for at least 30 minutes prior to dosing, as appropriate. The animals were temporarily restrained for dose administration and were not sedated. The volume for each dose was administered over 1 (preferred) or 2 (as necessary) separated injections within the designated area. If a designated injection site was not available for a given animal on any day, the next available test site in the rotation was used. The injection area was marked as frequently as required to allow appropriate visualization of administration sites. On the last injection occasion for each quadrant, the last site of injection was circled, and the circled site was collected for necropsy.
In-life procedures, observations, and measurements.

[4] = SC 5 mg/kg/day for 10 days, 3 males

SMILES: Cc1cc(O)cc(C)c1C[C@H](NC(=O)[C@H](N)CCCNC(=N)N)C(=O)N[C@@H](CCCCN)c1nc(Cc2ccccc2)no1.Cl.Cl.Cl [Formula IIa, (R)-2-amino-N—((S)-1-(((S)-5-amino-1-(3-benzyl-1,2,4-oxadiazol-5-yl)pentyl)amino)-3-(4-hydroxy-2,6-dimethylphenyl)-1-oxopropan-2-yl)-5-guanidinopentanamide]
- accumulation in eye tissues (retina, conjunctiva, cornea, aqueous humor, optic nerve head) compared with elamipretide [1]: higher concentration
- concentration in the eye tissue examined compared with elamipretide (conjunctiva, cornea, aqueous humor, optical nerve head) [1]: higher
- concentration in plasma, elamipretide compared with compound of Formula IIa ([1]; 1.5 mg/kg): roughly equivalent
- mitochondrial function (ATP production; basal respiration; maximal respiration; spare respiratory capacity) [2]: efficacy in improving mitochondrial function
- tolerability of administration by subcutaneous injection ([3]; 5 mg/kg/day for 10 days): well-tolerated
- body weights, differences related to administration [3, 4]: no differences in body weights
- mortality during the study [3, 4]: no mortality
